Entries after “also recorded” stand apart in the source; their conditions may differ. Where two headings read alike, the source gives them in different places. Peptide text beside a SMILES is read from it.
What was measured:
[1] = Solubility / aggregation screen of AQGV peptide salts; details: for aggregation in aqueous solution: in relation to peptide-acetate aggregation
Excerpt: FIG. 7: Overview of solubility experiments with results in Table 1.

[2] = Adverse events (AEs) in the EASI-study (phase II, CABG patients); type: in vivo, human
Method: A prospective, randomized, double-blind, placebo-controlled study was performed in which 180 elective patients undergoing on-pump coronary artery bypass grafting were enrolled. Patients were randomized in a 1:1 ratio and received either EA-230, 90 mg/kg/hour, or a placebo. These were infused at the start of the surgical procedure until the end of the use of the cardiopulmonary bypass. The main focus in this first-in-patient study was on safety and tolerability of EA-230. The primary efficacy endpoint was the modulation of the inflammatory response by EA-230. A key secondary endpoint was the effect of EA-230 on renal function.
The present study was a single-center, prospective, double-blind, placebo-controlled, randomized, single-dose phase II study. It has an adaptive design to evaluate the safety and immunomodulatory effects of EA-230 in patients undergoing for coronary artery bypass grafting (CABG). 180 eligible patients were included and were randomized to receive either active or placebo treatment in a 1:1 ratio. This was a first-in-patient safety and tolerability study, of which the primary efficacy objective was to assess the immunomodulatory effects of EA-230. The key-secondary efficacy endpoint was the effect of EA-230 on renal function. This study was described in accordance with the Standard Protocol Items: Recommendations for Interventional Trial (SPIRIT) guidelines, and registered at clinicaltrials.gov under number NCT03145220.
Intravenous infusion of EA-230, 90 mg/kg/hour, or placebo, was initiated at the moment of first surgical incision using an automated infusion pump. Infusion rate was set at 250 mL/hour, and infusion was continued until cessation of the CPB, or after 4 hours of continuous infusion, whichever comes first.
All AEs were judged by the investigators with regard to severity (“mild, moderate, or severe”) according to Common Terminology Criteria for Adverse Events guidelines 4.030 and their perceived relation to the study drug (“definitely, probably, possibly, or unrelated/unlikely to be related”). SAEs or SUSARs include death, life-threatening disease, persistent and/or significant disability and/or incapacity, and hospitalization and/or prolongation of inpatient hospitalization.

AQGV-citrate
behaviour of highly concentrated solution [1]: does not crystallize or aggregate but tend to form a highly viscous solution
solubility (aggregation point) [1]: Higher solubility
aggregation in aqueous solution [1]: (strongly) reduced aggregation

CC(C)[C@H](NC(=O)CNC(=O)[C@H](CCC(N)=O)NC(=O)[C@H](C)N)C(=O)O [EA-230, AQGV] (H-AQGV-OH)
AE of mild intensity, % of patients ([2]; EA-230 group N = 91): (83.5) %
AE of mild intensity, e = Number of events ([2]; EA-230 group N = 91): 188
AE of mild intensity, n = Number of patients experiencing the event ([2]; EA-230 group N = 91): 76
AE of moderate intensity, % of patients ([2]; EA-230 group N = 91): (24.2) %
AE of moderate intensity, e = Number of events ([2]; EA-230 group N = 91): 23
AE of moderate intensity, n = Number of patients experiencing the event ([2]; EA-230 group N = 91): 22
AE of severe intensity, % of patients ([2]; EA-230 group N = 91): (5.5) %
AE of severe intensity, e = Number of events ([2]; EA-230 group N = 91): 6
AE of severe intensity, n = Number of patients experiencing the event ([2]; EA-230 group N = 91): 5
Anemia, % of patients ([2]; EA-230 group N = 91): (5.5) %
Anemia, e = Number of events ([2]; EA-230 group N = 91): 5
Anemia, n = Number of patients experiencing the event ([2]; EA-230 group N = 91): 5
Any AE, % of patients ([2]; EA-230 group N = 91): (85.7) %
Any AE, n = Number of patients experiencing the event ([2]; EA-230 group N = 91): 78
Any SAE, % of patients ([2]; EA-230 group N = 91): (13.2) %
Any SAE, e = Number of events ([2]; EA-230 group N = 91): 23
Any SAE, n = Number of patients experiencing the event ([2]; EA-230 group N = 91): 12
Any SUSAR, % of patients ([2]; EA-230 group N = 91): (0) %
Any SUSAR, e = Number of events ([2]; EA-230 group N = 91): 0
Any SUSAR, n = Number of patients experiencing the event ([2]; EA-230 group N = 91): 0
Blood and lymphatic system disorders Overall, % of patients ([2]; EA-230 group N = 91): (5.5) %
Blood and lymphatic system disorders Overall, e = Number of events ([2]; EA-230 group N = 91): 6
Blood and lymphatic system disorders Overall, n = Number of patients experiencing the event ([2]; EA-230 group N = 91): 5
Delirium, % of patients ([2]; EA-230 group N = 91): (5.5) %
Delirium, e = Number of events ([2]; EA-230 group N = 91): 5
Delirium, n = Number of patients experiencing the event ([2]; EA-230 group N = 91): 5
Fluid retention, % of patients ([2]; EA-230 group N = 91): (2.2) %
Fluid retention, e = Number of events ([2]; EA-230 group N = 91): 2
Fluid retention, n = Number of patients experiencing the event ([2]; EA-230 group N = 91): 2
Gastrointestinal disorders Overall, % of patients ([2]; EA-230 group N = 91): (23.1) %
Gastrointestinal disorders Overall, e = Number of events ([2]; EA-230 group N = 91): 27
Gastrointestinal disorders Overall, n = Number of patients experiencing the event ([2]; EA-230 group N = 91): 21
Hemorrhagic diathesis, % of patients ([2]; EA-230 group N = 91): (1.1) %
Hemorrhagic diathesis, e = Number of events ([2]; EA-230 group N = 91): 1
Hemorrhagic diathesis, n = Number of patients experiencing the event ([2]; EA-230 group N = 91): 1
Infections and infestations Overall, % of patients ([2]; EA-230 group N = 91): (14.3) %
Infections and infestations Overall, e = Number of events ([2]; EA-230 group N = 91): 15
Infections and infestations Overall, n = Number of patients experiencing the event ([2]; EA-230 group N = 91): 13
Metabolism and nutrition disorders Overall, % of patients ([2]; EA-230 group N = 91): (11) %
Metabolism and nutrition disorders Overall, e = Number of events ([2]; EA-230 group N = 91): 10
Metabolism and nutrition disorders Overall, n = Number of patients experiencing the event ([2]; EA-230 group N = 91): 10
Nausea, % of patients ([2]; EA-230 group N = 91): (16.5) %
Nausea, e = Number of events ([2]; EA-230 group N = 91): 15
Nausea, n = Number of patients experiencing the event ([2]; EA-230 group N = 91): 15
Psychiatric disorders Overall, % of patients ([2]; EA-230 group N = 91): (9.9) %
Psychiatric disorders Overall, e = Number of events ([2]; EA-230 group N = 91): 9
Psychiatric disorders Overall, n = Number of patients experiencing the event ([2]; EA-230 group N = 91): 9
Renal and urinary disorders Overall, % of patients ([2]; EA-230 group N = 91): (4.4) %
Renal and urinary disorders Overall, e = Number of events ([2]; EA-230 group N = 91): 4
Renal and urinary disorders Overall, n = Number of patients experiencing the event ([2]; EA-230 group N = 91): 4
safety and tolerability ([2]; clinical trials / throughout surgery): safe and well tolerated; also recorded: found to be safe

O=C(O)/C=C\C(=O)O [maleic acid]
aggregation in aqueous solution [1]: aggravated aggregation
solubility (aggregation point) ([1]; solubility in 0.9% NaCl, compared to AQGV-Ac): lower solubility

Nc1ncnc2c1ncn2[C@@H]1O[C@H](CO)[C@@H](O)[C@H]1O [adenosine]
solubility (aggregation point) [1]: did not provide solubility
aggregation in aqueous solution [1]: aggravated aggregation

Nc1ncnc2c1ncn2[C@@H]1O[C@H](COP(=O)(O)O)[C@@H](O)[C@H]1O [adenosine-monophosphate]
solubility (aggregation point) [1]: did not provide solubility
aggregation in aqueous solution [1]: aggravated aggregation
